Test results from patent US20260256763A1, “Aromatic Amide Derivative, And Preparation Method Therefor And Use Thereof” (Zhejiang Hisun Pharmaceutical Co., Ltd., priority 2023, published 2026).

What was measured:
OVCAR-3 cells = assay: Inhibition on OVCAR-3 cell proliferation (CellTiter-Glo); assay type: cell-based; conditions: Homo sapiens, OVCAR-3 cells (TP53 R248Q mutation), 72 hours
Method in brief: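 OVCAR-3 (TP53 R248Q) cells seeded at 1000/well overnight, then treated 72 h at 37 °C with compound at final 1000 nM–0.015 nM. CellTiter-Glo luminescence read; inhibition versus 0.3% DMSO control, IC50 by nonlinear regression on log concentration.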

HT-29 cells = assay: Inhibition on HT-29 cell proliferation (CellTiter-Glo); assay type: cell-based; conditions: Homo sapiens, HT-29 cells (TP53 R273H mutation), 120 hours
[1] = tested on: OVCAR-3 human ovarian adenocarcinoma tumor fragment xenograft; assay: Pharmacodynamic testing in OVCAR-3 tumor fragment xenograft model; assay type: in vivo, BALB/c nude mice; conditions: 16 days after administration; for Relative tumor volume (x ± S) / Tumor volume (x ± S): mean ± standard error; for Tumor volume (x ± S): in mm³
Experimental: An anti-tumor effect of Compound 1 of the present invention in a BALB/c nude mouse animal model with subcutaneous OVCAR-3 human ovarian adenocarcinoma tumor fragment xenograft was evaluated.
BALB/c nude mice, female, 6-7 weeks old, purchased from Jiangsu Gempharmatech Biotechnology Co., Ltd.
Mice in a solvent control group were given DMA:CrEL:5% GS=10:10:80 (v:v:v).
AMG650: a proper amount of AMG-650 was weighed, proper amounts of DMA, CrEL and 5% GS were added in sequence, and the obtained system was evenly mixed by ultrasonic vortex to prepare 0.8 mg/mL and 0.4 mg/mL preparations respectively, wherein DMA, CrEL and 5% GS=10:10:80 (v:v:v).
Compound 1: a proper amount of Compound 1 was weighed, proper amounts of DMA, CrEL and 5% GS were added in sequence, and the obtained system was evenly mixed by ultrasonic vortex to prepare 0.8 mg/mL and 0.4 mg/mL preparations respectively, wherein DMA, CrEL and 5% GS=10:10:80 (v:v:v).
An appropriate OVCAR-3 tumor-bearing animal was selected, a 1 mm×1 mm×1 mm OVCAR-3 tumor fragment was acquired aseptically and placed into normal saline for later use, which was used for subcutaneous tumor inoculation in a right side of back of the BALB/c nude mice.
About 1 mm×1 mm×1 mm OVCAR-3 tumor fragment was subcutaneously inoculated in the right side of back of the female BALB/c nude mice. When an average tumor volume reached about 100-250 mm^3, the mice were randomly grouped according to the tumor size, with 6 mice in each group.
Animals in each group were given the test compound once per day according to an animal weight at a fixed time every day by oral administration (po), the animals started to be administered with the test compound for the first time on the day of grouping for 22 consecutive days, and the animal weight was recorded every day. • The 1st group (G1) was a solvent control group; • The 2nd group (G2) and the 3rd group (G3) were orally administered with AMG-650 at administration dosages of 8 mg/kg and 4 mg/kg respectively once per day (QD); and • The 4th group (G4) and the 5th group (G5) were orally administered with Compound 1 at administration dosages of 8 mg/kg and 4 mg/kg respectively once per day (QD).
Tumor formation at an inoculation site of the animals in each group was observed, and a tumor volume was measured twice per week, and calculated according to the following formula: • a tumor volume (TV), a relative tumor volume (RTV), a relative tumor proliferation rate (T/C) and a relative tumor inhibition rate (TGI) were calculated according to the following formulas:
TV (tumor volume)=½×a×b^2, wherein a and b respectively represented a tumor length and a tumor width; (1)
RTV (relative tumor volume)=Vt/V0, wherein V0 was a tumor volume measured at the time of grouping, and Vt was a tumor volume in each measurement; (2)
T/C (%)=TRTV/CRTV×100%, wherein TRTV was RTV of a treatment group, and CRTV was RTV of a solvent control group; and (3)
TGI %=(1−T/C)×100%, wherein T and C were relative tumor volumes of the treatment group and the solvent control group at a specific time point respectively. (4)

SMILES: CCS(=O)(=O)Nc1ccc(C(=O)Nc2cc3c(c(N4CCC(F)(F)CC4)c2)OCC3)c(N2CCC3(CC2)CC3)c1 [Example 1, N-(7-(4,4-difluoropiperidin-1-yl)-2,3-dihydrobenzofuran-5-yl)-4-(ethylsulfonamido)-2-(6-azaspiro[2.5]octan-6-yl)benzamide]
- IC50 (OVCAR-3 cells): 0.75 nM
- IC50 (HT-29 cells): 2.4 nM
- TGI ([1]; 4 mg/kg po QD): 81.3%
- Relative tumor volume (x ± S) ([1]; 4 mg/kg po QD): 0.61 ± 0.11
- Tumor volume (x ± S) ([1]; 4 mg/kg po QD): 120 ± 27
- TGI ([1]; 8 mg/kg po QD): 95.2%
- Relative tumor volume (x ± S) ([1]; 8 mg/kg po QD): 0.16 ± 0.03
- Tumor volume (x ± S) ([1]; 8 mg/kg po QD): 31 ± 8
